Laboratory results published in publication PMC3880124 (MedChemComm, 2013).
Read-outs that look alike come from different tables or passages of the source.

Legend:
SK2 [1] = biological target: T1, SK2 (Homo sapiens, UniProt Q9NRA0); test: Inhibition of SK2 activity; assay type: biochemical; details: compound at 50 μM; Sph 10 μM
T1 sequence (Q9NRA0 1-654): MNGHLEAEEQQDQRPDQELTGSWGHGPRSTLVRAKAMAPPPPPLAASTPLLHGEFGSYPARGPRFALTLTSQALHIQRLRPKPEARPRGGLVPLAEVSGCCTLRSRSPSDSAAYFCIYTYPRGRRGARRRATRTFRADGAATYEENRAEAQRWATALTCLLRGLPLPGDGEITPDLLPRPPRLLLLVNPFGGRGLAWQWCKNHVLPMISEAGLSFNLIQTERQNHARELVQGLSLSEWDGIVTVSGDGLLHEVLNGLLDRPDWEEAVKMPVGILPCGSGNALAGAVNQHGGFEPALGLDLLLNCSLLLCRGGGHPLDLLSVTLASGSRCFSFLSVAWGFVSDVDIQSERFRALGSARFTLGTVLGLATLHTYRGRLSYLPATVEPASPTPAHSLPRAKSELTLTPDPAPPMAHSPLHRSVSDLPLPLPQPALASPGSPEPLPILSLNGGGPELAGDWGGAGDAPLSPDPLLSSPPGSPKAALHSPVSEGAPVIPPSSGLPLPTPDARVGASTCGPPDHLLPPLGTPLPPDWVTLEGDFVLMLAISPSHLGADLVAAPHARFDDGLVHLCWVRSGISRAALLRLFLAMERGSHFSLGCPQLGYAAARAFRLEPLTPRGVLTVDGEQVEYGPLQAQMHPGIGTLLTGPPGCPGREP

SK1 [2] = biological target: T2, SK1 (Homo sapiens, UniProt Q9NYA1); test: Test of compounds as SK1 substrates; assay type: biochemical; details: compound at 50 μM
SK1 [3] = biological target: T2, SK1; test: Inhibition of SK1 activity; details: compound at 50 μM; Sph 3 μM
PASMC = details: 24 h
SK1 [4] = biological target: T2, SK1; test: SK1 expression in PASMC; details: 10 μM, 24 h, western blot
SK2 [5] = biological target: T1, SK2; test: Test of compounds as SK2 substrates; assay type: biochemical; details: compound at 50 μM

T2 sequence (Q9NYA1 whole entry): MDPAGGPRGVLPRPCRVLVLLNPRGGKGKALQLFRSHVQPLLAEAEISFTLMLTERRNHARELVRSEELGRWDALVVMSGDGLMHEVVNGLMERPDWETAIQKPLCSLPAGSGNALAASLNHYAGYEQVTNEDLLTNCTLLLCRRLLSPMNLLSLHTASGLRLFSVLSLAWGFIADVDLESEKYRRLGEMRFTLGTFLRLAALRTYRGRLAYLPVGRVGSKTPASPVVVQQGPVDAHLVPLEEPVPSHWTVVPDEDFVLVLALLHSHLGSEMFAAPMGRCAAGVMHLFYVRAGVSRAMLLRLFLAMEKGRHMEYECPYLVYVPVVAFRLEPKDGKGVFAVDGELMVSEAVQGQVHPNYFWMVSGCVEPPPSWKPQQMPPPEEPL

CCCCCCCCCCCCCCC[C@@H](O)[C@H](C)[N+](C)(C)C.Cc1ccc(S(=O)(=O)[O-])cc1 [77-13]
SK2 inhibition in words (SK2 [1]): nonselective SK inhibitor | substrate of SK1 (SK1 [2]): weak substrates of SK1 | SK1 inhibition in words (SK1 [3]): nonselective SK inhibitor

CCCCCCCCCCCCCCOC[C@@H](O)[C@H](C)N(C)C [77-7]
SK1 inhibition in words (SK1 [3]): effective SK1 inhibitor

CCCCCCCCCCCCc1ccc(C(=O)N2CCC[C@H]2C(=N)N)cc1.Cl [VPC96091, reference compound]
SK2 inhibition in words (SK2 [1]): abolished SK1 and SK2 activity | effect on DNA synthesis (PASMC; 300 nM): ineffective at reducing DNA synthesis

CCCCCCCCCCCCCCC[C@@H](O)[C@H](C)N [55-21, (2S,3R)-2-amino-3-octadecanol]
effect on SK1 expression (SK1 [4]): reduced the expression of SK1 | SK1 inhibition in words (SK1 [3]): more effective SK1 inhibitors | effect on DNA synthesis (PASMC; 100 nM and 1 μM): significantly inhibited DNA synthesis

CCCCCCCCCCCCCCC[C@@H](O)[C@H](CO)NC(=S)Nc1cccc(F)c1 [F-01]
SK2 inhibition in words (SK2 [1]): less effective | substrate of SK1 (SK1 [2]): weak substrates of SK1 | substrate of SK2 (SK2 [5]): very weak substrates of SK2

Cc1cc(CS(=O)(=O)c2ccccc2)cc(OCc2ccc(CN3CCC[C@@H]3CO)cc2)c1 [PF-543]
effect on DNA synthesis (PASMC; 10 nM and 100 nM): ineffective at reducing DNA synthesis

CCCCCCCCCCCCCCC[C@@H](O)[C@H](CO)NC(=S)Nc1cccc(C(F)(F)F)c1 [F-02]
effect on SK1 expression (SK1 [4]): without effect on SK1 expression | substrate of SK2 (SK2 [5]): very weak substrates of SK2

CCCCCCCCCCCCCC[C@H]1OC[C@H](NC(=S)Nc2c(F)c(F)c(F)c(F)c2F)[C@@H]1O [67-341]
substrate of SK1 (SK1 [2]): weak substrates of SK1

CCCCCCCCCCCCC/C=C\[C@@H](O)[C@@H](N)CO [67-302]
substrate of SK1 (SK1 [2]): weak substrates of SK1 | substrate of SK2 (SK2 [5]): efficiently phosphorylated by SK2

CCCCCCCCCCCCC/C=C/[C@@H](O)[C@H](CO)NC(=S)Nc1ccc(C(F)(F)F)cc1 [67-330]
SK2 inhibition in words (SK2 [1]): weak inhibitor of both SK isoforms | SK1 inhibition in words (SK1 [3]): weak inhibitor of both SK isoforms
